# Reference: patent US11639345B2, “Methionine metabolic pathway inhibitors” (MIGAL—GALILEE RESEARCH INSTITUTE LTD., priority 2018, dated 2023)
# Tested on: Roquette
# Test: Roquette assay spray
# Type: in vivo
# Details: single spray
row,SMILES,Roquette assay spray (single average)
1,Cc1cc(O)nc(C(=O)Nc2cccc(-c3nc(C)cc(O)n3)c2)c1 [IML-64],1.0
2,COc1cccc(C(=O)Nc2cccc(-c3cn(Cc4ccccc4)nn3)c2)c1 [IML-69],1.0
3,O=C(O)C1CN(C(=O)c2ccn(-c3ccccc3)n2)c2ccccc21 (stereo not drawn) [IML-121],3.0
4,O=C(O)C1CN(C(=O)c2cnn(-c3ccccc3)c2)c2ccccc21 (stereo not drawn) [IML-162],2.0
5,COc1cccc(-c2cc(C(=O)N3CC(C(=O)O)c4ccccc43)no2)c1 (stereo not drawn) [IML-166],2.0
6,O=C(O)C1CN(C(=O)c2cc(-c3ccccc3Cl)on2)c2ccccc21 (stereo not drawn) [IML-167],1.3
7,O=C(O)C1CN(C(=O)c2cc(-c3cccc(Cl)c3)on2)c2ccccc21 (stereo not drawn) [IML-181],0.5
8,CCc1nc(-c2cccc(NC(=O)c3cccc(OC)c3)c2)no1 [IML-215],1.0
9,CCc1noc(-c2cccc(NC(=O)c3cccc(OC)c3)c2)n1 [IML-216],2.0

# Same assay, conditions: spray twice
row,SMILES,Roquette assay spray (twice average)
1,Cc1cc(O)nc(C(=O)Nc2cccc(-c3nc(C)cc(O)n3)c2)c1 [IML-64],2.0
2,COc1cccc(C(=O)Nc2cccc(-c3cn(Cc4ccccc4)nn3)c2)c1 [IML-69],2.0
3,O=C(O)C1CN(C(=O)c2ccn(-c3ccccc3)n2)c2ccccc21 (stereo not drawn) [IML-121],4.0
4,COc1cccc(-c2cc(C(=O)N3CC(C(=O)O)c4ccccc43)no2)c1 (stereo not drawn) [IML-166],4.0
5,O=C(O)C1CN(C(=O)c2cc(-c3ccccc3Cl)on2)c2ccccc21 (stereo not drawn) [IML-167],3.5
6,CCc1nc(-c2cccc(NC(=O)c3cccc(OC)c3)c2)no1 [IML-215],2.0
7,CCc1noc(-c2cccc(NC(=O)c3cccc(OC)c3)c2)n1 [IML-216],2.0

# Tested on: Arabidopsis thaliana
# Test: Arabidopsis thaliana root growth inhibition
# Type: in vivo
# Details: 168 h, root length ratio vs DMSO control, 50 μM compound, lower values indicate shorter root, larger effect, read-out: Arabidopsis (relative to DMSO)
# Method: Finally, FIGS. 7a-7o are the photos of the Arabidopsis thaliana plants and the inhibition of their roots growth by the compounds of the present invention. These experiments were conducted as follows. Seeds were washed with 70% ethanol for one minute and then with sterile water. Sterilisation was performed with 50% bleaching solution (3%) and 0.2% Triton x-100 for ten minutes followed by a five-time wash with sterile water. The seeds were placed in six well-plates with half Murashige and Skoog medium (MS; Duchefa, Haarlem, Netherlands), containing 1% sucrose (w/v), pH 5.8. The plates with Arabidopsis thaliana seeds were placed at 4° C. for two days and then transferred for seven days to growth chamber (22±2° C.) at day/light cycles of 16/8 h. The plates were placed vertically. In each plate, a control including 0.1% DMSO in the medium was added. The compounds of the present invention were tested for their herbicidal efficiency by diluting 1000 times a 50 mM stock in DMSO leading to a final concentration of 50 μM with 0.1% DMSO.
# In Tables 1, 2 and 4 above, Arabidopsis root length was measured after addition of 50-μM compound compared with the negative control (DMSO) treatment. Length values indicate the ratio between non-treated plates ([…]) and the length after the addition of 50 uM of each compound. Lower values indicate shorter root length, and consequently, larger effect.
row,SMILES,activity at 50 µM [%]
1,Cc1cc(O)nc(C(=O)Nc2cccc(-c3nc(C)cc(O)n3)c2)c1 [IML-64],20
2,COc1cccc(C(=O)Nc2cccc(-c3cn(Cc4ccccc4)nn3)c2)c1 [IML-69],22
3,O=C(O)C1CN(C(=O)c2ccn(-c3ccccc3)n2)c2ccccc21 (stereo not drawn) [IML-121],9
4,O=C(O)C1CN(C(=O)c2cnn(-c3ccccc3)c2)c2ccccc21 (stereo not drawn) [IML-162],38
5,COc1cccc(-c2cc(C(=O)N3CC(C(=O)O)c4ccccc43)no2)c1 (stereo not drawn) [IML-166],0
6,O=C(O)C1CN(C(=O)c2cc(-c3ccccc3Cl)on2)c2ccccc21 (stereo not drawn) [IML-167],0
7,O=C(O)C1CN(C(=O)c2cc(-c3cccc(Cl)c3)on2)c2ccccc21 (stereo not drawn) [IML-181],0
8,CCc1nc(-c2cccc(NC(=O)c3cccc(OC)c3)c2)no1 [IML-215],6
9,CCc1noc(-c2cccc(NC(=O)c3cccc(OC)c3)c2)n1 [IML-216],20

# Tested on: E. coli lacking the endogenic MetB CGS gene, transformed to express the CGS from Arabidopsis
# Test: Growth of engineered E. coli expressing Arabidopsis CGS in M9 minimal media, with and without methionine
# Type: cell-based
# Details: score 0-5; growth of E. coli with Arabidopsis CGS gene in M9 minimal media
# Method: In addition to the direct binding evaluation, specific assay to test the compounds activity and specificity were also developed. In this assay, E. coli cells, lacking the endogenic MetB CGS gene and transformed to express the CGS from Arabidopsis, were used. These cells were grown on M9 minimal media with and without external methionine supplemented to the cells, in the presence of the compounds of the embodiments. These selected compounds of the embodiments, capable of inhibiting the cell growth on M9, but incapable of affecting the cell growth when supplemented with methionine, were validated as methionine-pathway specific inhibitors.
# In this assay, Methionine auxotroph E. coli mutant was transformed with PQE-30 vector containing the Arabidopsis CGS gene as previously described in Yael Hacham et al., Plant Physiol., February 2002, 128(2): 454-462. In order to test the effect of the small molecule inhibitors on the CGS and methionine pathway, growth curves of the E. coli in M9 minimal media with […] were measured with and without the addition of external methionine (40 mg/L) in the presence of variable compound concentrations. E. coli growth curves were measured by following the optical density at 600 nm of bacteria in 96 well-plate placed within Tecan M200 plate reader in orbital shaking mode at 37° C. The slope of each curve was estimated using the ‘linest’ function in Excel.
row,SMILES,E. coli Assay LE395 (0-5)
1,Cc1cc(O)nc(C(=O)Nc2cccc(-c3nc(C)cc(O)n3)c2)c1 [IML-64],2
2,O=C(O)C1CN(C(=O)c2ccn(-c3ccccc3)n2)c2ccccc21 (stereo not drawn) [IML-121],2
3,O=C(O)C1CN(C(=O)c2cnn(-c3ccccc3)c2)c2ccccc21 (stereo not drawn) [IML-162],3
4,CCc1nc(-c2cccc(NC(=O)c3cccc(OC)c3)c2)no1 [IML-215],3
5,CCc1noc(-c2cccc(NC(=O)c3cccc(OC)c3)c2)n1 [IML-216],3

# Same assay, conditions: score; growth with vs without external methionine (40 mg/L)
row,SMILES,E. coli specificity (MOA)
1,Cc1cc(O)nc(C(=O)Nc2cccc(-c3nc(C)cc(O)n3)c2)c1 [IML-64],4
2,O=C(O)C1CN(C(=O)c2ccn(-c3ccccc3)n2)c2ccccc21 (stereo not drawn) [IML-121],4
3,O=C(O)C1CN(C(=O)c2cnn(-c3ccccc3)c2)c2ccccc21 (stereo not drawn) [IML-162],5
4,CCc1nc(-c2cccc(NC(=O)c3cccc(OC)c3)c2)no1 [IML-215],3
5,CCc1noc(-c2cccc(NC(=O)c3cccc(OC)c3)c2)n1 [IML-216],5

# Tested on: not listed separately
# Test: TEV (relative to DMSO)
# Details: not given
row,SMILES,TEV (relative to DMSO)
1,Cc1cc(O)nc(C(=O)Nc2cccc(-c3nc(C)cc(O)n3)c2)c1 [IML-64],0.65
2,COc1cccc(C(=O)Nc2cccc(-c3cn(Cc4ccccc4)nn3)c2)c1 [IML-69],0.71
3,O=C(O)C1CN(C(=O)c2ccn(-c3ccccc3)n2)c2ccccc21 (stereo not drawn) [IML-121],0.28
4,O=C(O)C1CN(C(=O)c2cnn(-c3ccccc3)c2)c2ccccc21 (stereo not drawn) [IML-162],0.20
5,COc1cccc(-c2cc(C(=O)N3CC(C(=O)O)c4ccccc43)no2)c1 (stereo not drawn) [IML-166],0.06
6,O=C(O)C1CN(C(=O)c2cc(-c3ccccc3Cl)on2)c2ccccc21 (stereo not drawn) [IML-167],0.31
7,O=C(O)C1CN(C(=O)c2cc(-c3cccc(Cl)c3)on2)c2ccccc21 (stereo not drawn) [IML-181],0.22
8,CCc1nc(-c2cccc(NC(=O)c3cccc(OC)c3)c2)no1 [IML-215],0.39
9,CCc1noc(-c2cccc(NC(=O)c3cccc(OC)c3)c2)n1 [IML-216],0.57

# Molecular target: T1, Tobacco CGS (Nicotiana tabacum, UniProt Q9ZPL5)
# T1 sequence (Q9ZPL5 79-540): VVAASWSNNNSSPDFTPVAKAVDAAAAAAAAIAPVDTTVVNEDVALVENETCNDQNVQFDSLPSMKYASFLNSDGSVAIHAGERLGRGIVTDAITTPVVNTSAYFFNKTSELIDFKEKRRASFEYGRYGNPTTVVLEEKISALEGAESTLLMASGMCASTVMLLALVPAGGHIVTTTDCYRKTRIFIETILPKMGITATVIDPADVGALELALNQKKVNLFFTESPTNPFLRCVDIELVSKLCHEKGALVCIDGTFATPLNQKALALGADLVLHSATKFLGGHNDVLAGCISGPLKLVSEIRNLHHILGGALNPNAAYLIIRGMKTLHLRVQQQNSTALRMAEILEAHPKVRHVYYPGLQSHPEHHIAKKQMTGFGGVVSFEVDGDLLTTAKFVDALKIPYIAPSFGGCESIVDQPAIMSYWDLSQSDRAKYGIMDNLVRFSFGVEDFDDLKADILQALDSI
# Test: Micro Scale Thermophoresis (MST) direct binding to CGS
# Design: 6xHIS (N, cleaved yes); GB1 solubility tag (N, cleaved yes); made in house; host or cells: E. coli BL21
# Details: score 0-5; binding to labelled Tobacco CGS
# Method: The direct binding of the compounds of the embodiments to the CGS was tested by Micro Scale Thermophoresis (MST). In the MST assay, the CGS protein was labelled with a fluorophore, the samples were heated, and changes in fluorescence were measured as a function of the ligand concentration. In the MST assay, similar to the expression and purification described above, the recombinant Tobacco CGS protein was expressed in E. coli BL21 cells and purified to homogeneity. For that particular purpose, the pET-11 vector containing the DNA sequence of Tobacco CGS with an N-terminus […] tag followed by a TEV-cleavable GB1 solubility tag was cloned and transformed into the bacteria cells. Cells were cultured to OD=0.8, and protein expression was induced by the addition of 1 mM IPTG. The cells were cultured for additional 16 hours temperature 25° C. Following cellular lysis, the soluble fraction was passed through the nickel column and the bound HIS-tagged protein was eluted by 300 mM imidazole. Then, the tags […] and GB1 were cleaved in dialysis o/n and the mixtures passed again through the nickel column to separate the CGS from the TEV and HIS-GB1 constructs. As a final step the CGS was run on S75 size exclusion chromatography. Thus, the MST assay was performed to measure the biding of the compounds to the CGS protein. For this purpose, the CGS was labelled with commercially available amine reactive fluorophore (Cat # MO-[…], NanoTemper) according to the manufacture instructions. The MST binding curves were then measured using the Monolith NT.115 apparatus by incubating the labelled protein with the indicated compounds in a dose-response manner.
row,SMILES,MST Tobacco (0-5)
1,Cc1cc(O)nc(C(=O)Nc2cccc(-c3nc(C)cc(O)n3)c2)c1 [IML-64],4
2,COc1cccc(C(=O)Nc2cccc(-c3cn(Cc4ccccc4)nn3)c2)c1 [IML-69],5
3,CCc1nc(-c2cccc(NC(=O)c3cccc(OC)c3)c2)no1 [IML-215],2
4,CCc1noc(-c2cccc(NC(=O)c3cccc(OC)c3)c2)n1 [IML-216],2

# Molecular target: T1, Tobacco CGS
# Test: Malachite Green Phosphate assay of direct CGS activity
# Type: biochemical
# Design: 6xHIS (cleaved yes); GB1 solubility tag (cleaved yes); made in house; host or cells: E. coli BL-21
# Details: 2 h; 50 μM compound, 1 μM CGS, two-hour incubation at 25° C.; read-out: Malachite Green Phosphate Assay (% to DMSO, 50 μM)
# Method: As discussed above, the first reaction in methionine biosynthesis in plants is catalyzed by the CGS enzyme. In this reaction, the formation of cystathionine is conducted by the γ-replacement of the phosphoryl substituent of O-phospho-homoserine by cysteine and consecutive release of an orthophosphate group.
# Expression of recombinant CGS was done by transforming the pET-11 vector containing the DNA sequence of Tobacco CGS with a 6xHIS tag and GB1 solubility tag followed by TEV cleavage site into BL-21 cells. These cells were cultured at 37° C. and optical density (OD)=0.8 protein at 600 nm, and the expression was induced by addition of 1 mM IPTG for 16 hours at 25° C. The protein was purified to homogeneity onto nickel column and cleaved by o/n dialysis with the TEV protease. A second nickel column was used to separate the cleaved CGS from the TEV and GB1 solubility tag.
# The direct activity of CGS was tested using the Malachite Green Phosphate Assay Kit (Sigma-Aldrich, cat # MAK307-1KT). It is a highly sensitive and robust experiment used to measure the release of free orthophosphate group based on quantification of the green-coloured complex formed between Malachite Green, molybdate, and free orthophosphate. The rapid colour formation from the reaction can be conveniently measured on a spectrophotometer via the absorbance at 620 nm.
# The assay mixture (100 μl) contained 50 mM MOPS—NaOH (pH 7.5), 150 mM NaCl, 0.1 mM PLP and 1 μM purified CGS. The compounds of the present invention were added at a final concentration of 50 μM and reactions were initiated by adding 2 mM cysteine and 3 mM O-phospho-L-homo-serine. After two-hour incubation at 25° C., 80 μL of each sample were transferred into a new 96 well-plate containing 20 μl of Malachite Green Reagent and incubated for additional 30 min at 25° C. Colour development was measured by a plate reader Tecan M200 (620 nm).
row,SMILES,remaining activity at 50 µM [%]
1,Cc1cc(O)nc(C(=O)Nc2cccc(-c3nc(C)cc(O)n3)c2)c1 [IML-64],15.2
2,COc1cccc(C(=O)Nc2cccc(-c3cn(Cc4ccccc4)nn3)c2)c1 [IML-69],30
3,CCc1nc(-c2cccc(NC(=O)c3cccc(OC)c3)c2)no1 [IML-215],12.8
